# Test results published in patent US8383136B2, “Micelle encapsulation of therapeutic agents” (Wisconsin Alumni Research Foundation, priority 2009, dated 2013).
# Where “and” joins values, the source holds several entries; their conditions need not be identical. Equal entries are not always repeated. Entries after “also recorded” stand apart in the source; their conditions may differ.
# Legend:
# [1] = Acute toxicity experiments in FVB female albino mice; conditions: PEG-b-PLA micelles, 3 IV injections days 0, 4, 8; paclitaxel 60, 17-AAG 60, rapamycin 30 mg/kg
# Experimental: Briefly, acute toxicity experiments were carried out in FVB female albino mice with 3 IV injections on days 0, 4, and 8, measuring body weights and monitoring survival over 12 days (FIG. 21).
# [2] = test system: 4T1 murine breast cancer cells; assay: In vitro cytotoxicity, resazurin assay, and combination index; format: cell-based; conditions: drug(s) in SDM or MDM, 72 hours, unit inferred, PTX/17-AAG 4.7:1, RAP/17-AAG 1:1, RAP/PTX 1:1, RAP/PTX/17-AAG 1:5:1, read-out: IC50
# Experimental: MCF-7 human breast cancer cells were cultured in DMEM medium while 4T1 murine breast cancer cells, A549 human non-small cell lung cancer cells, and LS180 human colon cancer cells were cultured in RPMI1640 medium. Both media were supplemented with 10% fetal bovine serum (FBS) with antibiotics under 5% CO2 and 37° C. in an incubator. […] Free drugs were dissolved in DMSO, and drug-loaded PEG-b-PLA micelles were in deionized water. […] […] The metabolic conversion of resazurin dye by each viable cancer cell was quantified using a fluorescence cell plate reader (SpectraMax M2, Molecular Devices, USA) to estimate cell viability. […] IC50 values of free drugs and drug-loaded PEG-b-PLA micelles were calculated based on median-effect equation using Compusyn software (ver. 1.0).
# (§1) CI values were obtained at IC50 values for 2- or 3-drug combinations. CI<1, C=1, and CI>1 were used as criteria to determine whether 2- or 3-drug combinations are synergistic, additive, and antagonistic, respectively (FIGS. 13-20).
# [3] = Physical stability / drug loss from PEG-b-PLA micelles after 24 hours (turbidity, HPLC); format: physicochemical
# Experimental: Turbidity measurements were used to evaluate the physical stability of drug-loaded PEG-b-PLA micelles. A CARY 50 BIO UV-Visible spectrophotometer equipped with dip probe was used to measure turbidity. Micellar solutions were diluted six times, for a final concentration of PEG-b-PLA of 5 mg/mL, with DD H2O and filtered through 0.45 μm filter. […] Each measurement was performed in triplicate.
# [4] = test system: H-358 human non-small-cell lung cancer xenografts; conditions: combined with 17-AAG; cited from earlier work
# [5] = Drug solubilization by PEG-b-PLA micelles (drug level in water, reverse phase HPLC); conditions: analyte paclitaxel, SDM or MDM, PEG-b-PLA (4.2K:1.9K) micelles
# Experimental: The drug-polymer mixture was dissolved in 0.50 mL acetonitrile (ACN). The ACN was removed at 60° C. under reduced pressure on a rotary evaporator resulting in the formation of a homogenous film, The drug-polymer film was rehydrated with 0.50 mL of DD H2O at 60° C. with gentle agitation resulting in a clear solution of drug-loaded PEG-b-PLA micelles. The micellar solution was filtered using a 0.45 μm filter, and the micelles were characterized in terms of size and loading by Dynamic Light Scattering (DLS) and HPLC respectively.
# MDMS were prepared similarly to the SDMs by mixing 2.0 mg of each drug with 15 mg of the polymer. The procedure for the preparation and characterization of these micelles was identical to the SDMs.
# The content of drug loaded in PEG-b-PLA micelles was quantified by reverse phase HPLC. The HPLC system used for quantifying was a Shimadzu prominence HPLC system (Shimadzu, JP), consisting of a LC-20AT pump, SIL-20AC HT autosampler, CTO-20AC column oven and a SPD-M20A diode array detector. A sample of 10 μL was injected into a Zorbax SB-C8 Rapid Resolution cartridge (4.6×75 mm, 3.5 micron, Agilent). The column temperature was maintained at 40° C. throughout the run. Two HPLC methods were developed to quantify the amount of the drug(s) loaded in PEG-b-PLA micelles.
# The mobile phase was an isocratic mixture of 45% ACN and 54% aqueous phase containing 0.1% phosphoric acid and 1% methanol in DD H2O.
# The mobile phase was a gradient mixture of ACN and aqueous phase containing 0.1% phosphoric acid and 1% methanol in DD H2O. […] With both HPLC methods samples were injected twice and reproducible and rapid separation of the drugs was achieved.
# Mn of PEG and PLA of PEG-b-PLA was 4,200 and 1,900 g/mol, respectively (APC Inc., UK). ACN was removed by heating at 60° C. and reduced pressure. The resultant dry polymer film containing anti-cancer agent(s) was dissolved by addition of water (0.50 mL) at 60° C. with gentle agitation.
# The resultant dry PEG-b-PLA film containing drugs was dissolved by the addition of water (0.50 mL) at 60° C. with gentle agitation.
# [6] = Dynamic light scattering size of SDM and MDM; format: physicochemical; conditions: DLS, drug-loaded SDM or MDM
# Experimental: The drug-loaded micellar solutions were diluted 20 times with DD H2O and the samples was equilibrated for 2 min at 25° C. before the measurements. […] The hydrodynamic diameter of PEG-b-PLA micelles was calculated based on the Stokes-Einstein equation. Correlation function was curve fitted by cumulant method to calculate mean size and polydispersion index (PDI). All measurements were repeated three times, and volume-weighted particle sizes were presented as the average diameter with standard deviation.
# [7] = test system: MCF-7 human breast cancer cells; assay: In vitro cytotoxicity, resazurin assay, and combination index; format: cell-based; conditions: Homo sapiens, MCF7, 72 h; read-out: IC50
# Experimental: (§2) MCF-7 human breast cancer cells were cultured in DMEM medium while 4T1 murine breast cancer cells, A549 human non-small cell lung cancer cells, and LS180 human colon cancer cells were cultured in RPMI1640 medium. Both media were supplemented with 10% fetal bovine serum (FBS) with antibiotics under 5% CO2 and 37° C. in an incubator. […] Free drugs were dissolved in DMSO, and drug-loaded PEG-b-PLA micelles were in deionized water. The samples were diluted with cell culture media to make 0.10, 1.0, 10, 100 and 1000 nM in 96 well plates. […] The metabolic conversion of resazurin dye by each viable cancer cell was quantified using a fluorescence cell plate reader (SpectraMax M2, Molecular Devices, USA) to estimate cell viability. […] IC50 values of free drugs and drug-loaded PEG-b-PLA micelles were calculated based on median-effect equation using Compusyn software (ver. 1.0).
# as §1
# [8] = test system: A549 human non-small cell lung cancer cells; assay: as above; format: cell-based; conditions: drug(s) in SDM or MDM, 72 hours, unit inferred, PTX/17-AAG 4.7:1, RAP/17-AAG 1:1, RAP/PTX 1:1, RAP/PTX/17-AAG 1:5:1, read-out: IC50
# Experimental: as §2, §1
# [9] = In vitro drug release from PEG-b-PLA micelles (dialysis method); format: physicochemical; conditions: SDM, dialysis; listed as PTX
# Experimental: (§3) SDMs or MDMs were prepared and characterized as described above. Post micelle preparation each sample was diluted with DD H2O, to yield about 0.10 mg/mL of each drug. A volume of 2.5 mL of the prepared sample was loaded into a 3 mL Slide-A-Lyzer® (Thermo Scientific Inc.) dialysis cassette with a MWCO of 20,000 g/mol. Four cassettes were used in each experiment. The cassettes were placed in 2.0 L of buffer which was changed every 3 hours to ensure sink conditions for drug(s) and polymer. A sample of 100 μL was drawn from each cassette at various sampling time intervals and then replaced with 100 μL of fresh buffer. […] The amount of drug(s) in each sample was quantified by HPLC as described above.
# Statistical analysis was performed using one-way ANOVA at 5% significance level combined with Tukey's Multiple Comparison Test or t-test at 5% significance level. Curve-fitting analysis using one phase exponential association was used to calculate the half-life (t1/2) of drug in in vitro drug release experiments. Both analyses were performed using GraphPad Prism version 5.00 for Windows, Graph-Pad Software, San Diego Calif. USA, www.graphpad.com.
# as §3, with “Post-micelle preparation,” for “Post micelle preparation”, “yield samples of” for “yield”, “reverse phase HPLC.” for “HPLC as described above.”
# [10] = without micelles; cited from earlier work
# [11] = % drug loading of PEG-b-PLA micelles (wt drug(s)/wt polymer); format: physicochemical; conditions: all drugs of the SDM or MDM together, PEG-b-PLA (4.2K:1.9K) micelles
# Experimental: Drug(s) to polymer w/w percent was calculated for SDM and MDM. PEG-b-PLA micelles were freeze dried, weighed and the amount of drug(s) in the freeze dried sample was quantified by HPLC. The drug w/w percent was calculated as the mass of the drug(s) to the mass of polymer in the freeze dried sample multiplied by 100.
# [12] = analyte paclitaxel, PEG-b-PLA micelles
smiles,measurement,setting,value
CC(=O)O[C@H]1C(=O)[C@@]2(C)[C@H]([C@H](OC(=O)c3ccccc3)[C@]3(O)C[C@H](OC(=O)[C@H](O)[C@@H](NC(=O)c4ccccc4)c4ccccc4)C(C)=C1C3(C)C)[C@]1(OC(C)=O)CO[C@@H]1C[C@@H]2O [Paclitaxel],acute toxicity,[1],low
same,IC50,[2],11200 ± 4160 nM
same,drug precipitated at 24 hours,"[3]; SDM, HPLC data",approximately 84%
same,% w/w drug(s) left @ 24 hr,[3]; [12],16.2 ± 1.0 % w/w
same,initial drug level in water,[3]; [12],3.54 ± 0.32 mg/mL
same,drug level @ 24 hr in water,"[3]; analyte paclitaxel, PEG-b-PLA micelles, 24 hr",570 ± 70 µg/mL
same,time the micelles were physically stable,"[3]; turbidity, ambient temperature",approximately 6 hours
same,enhancement of PTX cytotoxicity,[4],5-22 fold
same,drug level in water,[5],3540 ± 320 µg/mL
same,drug level in water,[5]; listed as PTX,3500 µg/mL
same,PEG-b-PLA micelle diameter,[6],38.8 ± 0.6 nm
same,IC50,[7],226 ± 32 nM
same,IC50,[8],397 ± 59 nM
same,behaviour of PTX during the release test,[9],Rapid precipitation; also recorded: precipitated during release
same,solubility of paclitaxel in water,[10],approximately 1 μg/mL
same,% drug loading (wt. drug(s)/wt. polymer),[11],11.8 ± 1.1% and 10.3 ± 0.9%
same,% drug loading (wt. drug(s)/wt. polymer),[11]; listed as PTX,10.3%
